Test results from patent US4435387A, “Poly-cation salts of bis (or tris) 4-O-polyhexose-thio-arylene sulfate derivatives” (American Cyanamid Company, priority 1982, dated 1984).
Where two headings read alike, the source gives them in different places.

Legend:
activated human C1 = biological target: T1, activated human C1 (Homo sapiens, UniProt P09871); test: Test Code 026 (C1 inhibitor); format: biochemical; conditions: in vitro; twofold serial dilution assay, higher well number indicates higher activity
T1 construct: fluid-phase C2 destruction with C4 present
Method: (§1) Percent inhibition is calculated by comparison with simultaneous controls.
(§2) **Activity in wells, a serial dilution assay; higher well number indicate
(§3) higher activity. The serial dilutions are twofold.

[1] = tested on: late components of human complement (C3-C9); test: Test Code 035 (C3-C9 inhibitor), lysis of EAC 142; format: biochemical; conditions: in vitro; twofold serial dilution assay, higher well number indicates higher activity
Method: as §1, §2, §3

[2] = tested on: hereditary angioneurotic edema; conditions: literature reports; cited from earlier work
[3] = tested on: human serum total hemolytic complement activity; conditions: in vitro and in vivo, judged by reduction in total hemolytic complement activity; Pathol. Biol. 25 (1977); cited from earlier work
[4] = tested on: complement activity of guinea pig sera; test: Guinea Pig Intraperitoneal Test (GPIP); format: in vivo; conditions: Cavia porcellus, ip, 200 mg/kg i.p.
Method: as §1

T1 sequence (P09871 16-688): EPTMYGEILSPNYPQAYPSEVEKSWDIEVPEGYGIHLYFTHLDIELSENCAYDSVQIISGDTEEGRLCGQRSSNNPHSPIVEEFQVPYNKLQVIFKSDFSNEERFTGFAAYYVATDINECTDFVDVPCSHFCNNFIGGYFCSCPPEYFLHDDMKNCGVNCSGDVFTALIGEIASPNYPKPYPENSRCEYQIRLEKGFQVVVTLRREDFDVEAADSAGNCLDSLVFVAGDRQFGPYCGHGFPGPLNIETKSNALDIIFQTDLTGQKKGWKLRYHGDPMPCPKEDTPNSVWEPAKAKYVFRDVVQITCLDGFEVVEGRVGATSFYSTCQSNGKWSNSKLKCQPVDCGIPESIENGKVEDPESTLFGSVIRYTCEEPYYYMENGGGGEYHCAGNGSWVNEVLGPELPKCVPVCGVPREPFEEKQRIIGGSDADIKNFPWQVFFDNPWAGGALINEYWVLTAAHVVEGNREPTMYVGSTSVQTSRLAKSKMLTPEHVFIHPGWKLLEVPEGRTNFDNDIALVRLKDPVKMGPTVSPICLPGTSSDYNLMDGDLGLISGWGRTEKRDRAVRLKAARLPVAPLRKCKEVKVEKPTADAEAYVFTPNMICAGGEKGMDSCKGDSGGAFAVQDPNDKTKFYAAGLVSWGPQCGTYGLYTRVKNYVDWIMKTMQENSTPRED
T1 sequence (P00736 18-705 partner): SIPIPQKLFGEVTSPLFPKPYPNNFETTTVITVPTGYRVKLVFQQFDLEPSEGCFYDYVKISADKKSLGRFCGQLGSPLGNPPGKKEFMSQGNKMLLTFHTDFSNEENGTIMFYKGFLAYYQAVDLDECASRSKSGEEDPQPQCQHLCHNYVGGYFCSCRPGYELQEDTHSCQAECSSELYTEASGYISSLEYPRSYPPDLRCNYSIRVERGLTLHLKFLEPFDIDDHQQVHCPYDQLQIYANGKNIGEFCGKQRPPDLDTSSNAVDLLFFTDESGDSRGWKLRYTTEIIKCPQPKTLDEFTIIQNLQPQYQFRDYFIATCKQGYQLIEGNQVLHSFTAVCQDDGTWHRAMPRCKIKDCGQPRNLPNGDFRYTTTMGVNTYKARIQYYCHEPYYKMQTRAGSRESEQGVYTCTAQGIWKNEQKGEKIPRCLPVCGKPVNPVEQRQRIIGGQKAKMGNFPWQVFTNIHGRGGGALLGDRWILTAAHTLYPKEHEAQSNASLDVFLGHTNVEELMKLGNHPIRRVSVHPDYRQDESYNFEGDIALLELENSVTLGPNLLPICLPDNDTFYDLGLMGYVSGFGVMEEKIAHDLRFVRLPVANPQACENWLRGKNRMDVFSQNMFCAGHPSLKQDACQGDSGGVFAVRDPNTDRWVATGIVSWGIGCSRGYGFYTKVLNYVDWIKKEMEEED
T1 sequence (P02745 23-245 partner): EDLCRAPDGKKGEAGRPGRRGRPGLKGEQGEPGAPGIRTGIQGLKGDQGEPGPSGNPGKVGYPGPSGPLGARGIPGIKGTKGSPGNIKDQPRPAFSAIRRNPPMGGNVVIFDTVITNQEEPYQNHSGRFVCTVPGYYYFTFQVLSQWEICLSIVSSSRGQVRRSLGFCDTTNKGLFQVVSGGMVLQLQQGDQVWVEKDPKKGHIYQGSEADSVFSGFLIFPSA
T1 sequence (P02746 28-253 partner): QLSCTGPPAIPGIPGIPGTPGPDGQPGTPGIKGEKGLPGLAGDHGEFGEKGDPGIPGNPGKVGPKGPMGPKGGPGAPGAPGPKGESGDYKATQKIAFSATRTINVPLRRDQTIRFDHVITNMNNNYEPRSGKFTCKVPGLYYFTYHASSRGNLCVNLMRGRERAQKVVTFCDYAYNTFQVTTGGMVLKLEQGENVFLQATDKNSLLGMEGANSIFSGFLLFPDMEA
T1 sequence (P02747 29-245 partner): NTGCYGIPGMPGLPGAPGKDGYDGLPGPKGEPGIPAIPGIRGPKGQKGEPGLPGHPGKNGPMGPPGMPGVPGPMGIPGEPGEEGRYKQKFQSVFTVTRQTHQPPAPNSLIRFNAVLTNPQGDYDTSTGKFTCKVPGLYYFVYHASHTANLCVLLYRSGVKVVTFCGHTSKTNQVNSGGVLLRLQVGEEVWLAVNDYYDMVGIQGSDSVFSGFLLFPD

## O=S(=O)(O)OC[C@H]1O[C@@H](Sc2ccc(NS(=O)(=O)c3cc(S(=O)(=O)Nc4ccc(S[C@@H]5O[C@H](COS(=O)(=O)O)[C@@H](O[C@H]6O[C@H](COS(=O)(=O)O)[C@@H](OS(=O)(=O)O)[C@H](OS(=O)(=O)O)[C@H]6OS(=O)(=O)O)[C@H](OS(=O)(=O)O)[C@H]5OS(=O)(=O)O)cc4)cc(S(=O)(=O)Nc4ccc(S[C@@H]5O[C@H](COS(=O)(=O)O)[C@@H](O[C@H]6O[C@H](COS(=O)(=O)O)[C@@H](OS(=O)(=O)O)[C@H](OS(=O)(=O)O)[C@H]6OS(=O)(=O)O)[C@H](OS(=O)(=O)O)[C@H]5OS(=O)(=O)O)cc4)c3)cc2)[C@H](OS(=O)(=O)O)[C@@H](OS(=O)(=O)O)[C@@H]1O[C@H]1O[C@H](COS(=O)(=O)O)[C@@H](OS(=O)(=O)O)[C@H](OS(=O)(=O)O)[C@H]1OS(=O)(=O)O.[Na].[Na].[Na].[Na].[Na].[Na].[Na].[Na].[Na].[Na].[Na].[Na].[Na].[Na].[Na].[Na].[Na].[Na].[Na].[Na].[Na] [Heneicosasodium N,N',N"-tris[4-[[2,3,6-tri-O-sulfo-4-O-(2,3,4,6-tetra-O-sulfo-α-D-glucopyranosyl)-β-D-glucopyranosyl]thio]phenyl]-1,3,5-benzenetrisulfonamide]
Activated human C1
  C-1 026 Wells: 9 Wells
[1]
  C-Late 035 Wells: 3 Wells

## NCCCCCC(=O)O [epsilon-aminocaproic acid]
[2]
  treatment of hereditary angioneurotic edema: used with success

## pentosan-polysulfoester
[3]
  anticomplementary activity on human serum: anticomplementary activity

## NC[C@H]1CC[C@H](C(=O)O)CC1 [tranexamic acid]
[2]
  treatment of hereditary angioneurotic edema: used with success

## O=S(=O)(O)OC[C@H]1O[C@@H](Sc2ccc(NS(=O)(=O)c3cc(S(=O)(=O)Nc4ccc(S[C@@H]5O[C@H](COS(=O)(=O)O)[C@@H](O[C@@H]6O[C@H](COS(=O)(=O)O)[C@@H](OS(=O)(=O)O)[C@H](OS(=O)(=O)O)[C@H]6OS(=O)(=O)O)[C@H](OS(=O)(=O)O)[C@H]5OS(=O)(=O)O)cc4)cc(S(=O)(=O)Nc4ccc(S[C@@H]5O[C@H](COS(=O)(=O)O)[C@@H](O[C@@H]6O[C@H](COS(=O)(=O)O)[C@@H](OS(=O)(=O)O)[C@H](OS(=O)(=O)O)[C@H]6OS(=O)(=O)O)[C@H](OS(=O)(=O)O)[C@H]5OS(=O)(=O)O)cc4)c3)cc2)[C@H](OS(=O)(=O)O)[C@@H](OS(=O)(=O)O)[C@@H]1O[C@@H]1O[C@H](COS(=O)(=O)O)[C@@H](OS(=O)(=O)O)[C@H](OS(=O)(=O)O)[C@H]1OS(=O)(=O)O.[Na].[Na].[Na].[Na].[Na].[Na].[Na].[Na].[Na].[Na].[Na].[Na].[Na].[Na].[Na].[Na].[Na].[Na].[Na].[Na].[Na] [Heneicosasodium N,N',N"-tris[4-[[2,3,6-tri-O-sulfo-4-O-(2,3,4,6-tetra-O-sulfo-β-D-glucopyranosyl)-β-D-glucopyranosyl]thio]phenyl]-1,3,5-benzenetrisulfonamide]
Activated human C1
  C-1 026 Wells: 12 Wells
[1]
  C-Late 035 Wells: 3 Wells

## O=C(Nc1ccc(S[C@@H]2O[C@H](COS(=O)(=O)O)[C@@H](O[C@H]3O[C@H](COS(=O)(=O)O)[C@@H](OS(=O)(=O)O)[C@H](OS(=O)(=O)O)[C@H]3OS(=O)(=O)O)[C@H](OS(=O)(=O)O)[C@H]2OS(=O)(=O)O)cc1)c1ccc(C(=O)Nc2ccc(S[C@@H]3O[C@H](COS(=O)(=O)O)[C@@H](O[C@H]4O[C@H](COS(=O)(=O)O)[C@@H](OS(=O)(=O)O)[C@H](OS(=O)(=O)O)[C@H]4OS(=O)(=O)O)[C@H](OS(=O)(=O)O)[C@H]3OS(=O)(=O)O)cc2)cc1.[Na].[Na].[Na].[Na].[Na].[Na].[Na].[Na].[Na].[Na].[Na].[Na].[Na].[Na] [Tetradecasodium N,N'-bis[4-[[2,3,6-tri-O-sulfo-4-O-(2,3,4,6-tetra-O-sulfo-α-D-glucopyranosyl)-β-D-glucopyranosyl]thio]phenyl]-1,4-benzenedicarboxamide]
[4]; serum complement 2 hours after injection, read-out: In vivo Activity (Guinea Pig % Inhibition) Intraperitoneal, 2 hours
  inhibition at 200 mg/kg: 87%
[4]; serum complement 6 hours after injection, read-out: In vivo Activity (Guinea Pig % Inhibition) Intraperitoneal, 6 hours
  inhibition at 200 mg/kg: 90%
[4]; serum complement 24 hours after injection, read-out: In vivo Activity (Guinea Pig % Inhibition) Intraperitoneal, 24 hours
  inhibition at 200 mg/kg: 62%
Activated human C1
  C-1 026 Wells: 9 Wells
[1]
  C-Late 035 Wells: 2 Wells

## O=C(Nc1ccc(S[C@@H]2O[C@H](COS(=O)(=O)O)[C@@H](O[C@H]3O[C@H](COS(=O)(=O)O)[C@@H](OS(=O)(=O)O)[C@H](OS(=O)(=O)O)[C@H]3OS(=O)(=O)O)[C@H](OS(=O)(=O)O)[C@H]2OS(=O)(=O)O)cc1)c1cc(C(=O)Nc2ccc(S[C@@H]3O[C@H](COS(=O)(=O)O)[C@@H](O[C@H]4O[C@H](COS(=O)(=O)O)[C@@H](OS(=O)(=O)O)[C@H](OS(=O)(=O)O)[C@H]4OS(=O)(=O)O)[C@H](OS(=O)(=O)O)[C@H]3OS(=O)(=O)O)cc2)cc(C(=O)Nc2ccc(S[C@@H]3O[C@H](COS(=O)(=O)O)[C@@H](O[C@H]4O[C@H](COS(=O)(=O)O)[C@@H](OS(=O)(=O)O)[C@H](OS(=O)(=O)O)[C@H]4OS(=O)(=O)O)[C@H](OS(=O)(=O)O)[C@H]3OS(=O)(=O)O)cc2)c1.[Na].[Na].[Na].[Na].[Na].[Na].[Na].[Na].[Na].[Na].[Na].[Na].[Na].[Na].[Na].[Na].[Na].[Na].[Na].[Na].[Na] [Heneicosasodium N,N',N"-tris[4-[[2,3,6-tri-O-sulfo-4-O-(2,3,4,6-tetra-O-sulfo-α-D-glucopyranosyl)-β-D-glucopyranosyl]thio]phenyl]-1,3,5-benzenetricarboxamide]
Activated human C1
  C-1 026 Wells: 8 Wells
[1]
  C-Late 035 Wells: 2 Wells
